Laboratory results: patent US20020137929A1, “1 - (3-heterocyclylphenyl) isothiourea, -isourea, -guanidine and -amidine herbicidal agents” (Intellectual Property Department, BASF Aktiengesellschaft, priority 1998, published 2002)

Columns and labels:
[1] = system: AMBEL (Ragweed, Common); assay: Postemergence herbicidal evaluation; type: in vivo, Ambrosia artemisifolia; conditions: postemergence
Summary of the method: (§1)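 Scores (0–9) reflect plant stand, vigor, malformation, size, chlorosis and general appearance relative to control, read 4 to 5 weeks after treatment and averaged where tests were repeated. Application: about 0.0156–0.500 kg/ha sprayed at 40 psi onto two-week seedlings.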

[2] = system: CASOB (Sicklepod); assay: Postemergence herbicidal evaluation; type: in vivo, Cassia obtusifolia; conditions: postemergence
Summary of the method: as §1

[3] = system: GALAP (Galium); assay: Postemergence herbicidal evaluation; type: in vivo, Galium aparine; conditions: postemergence
Summary of the method: as §1

[4] = system: GLXMAW (Soybean, Williams); assay: Postemergence herbicidal evaluation; type: in vivo, Glycine max, (L.) Merr. cv Williams; conditions: postemergence
Summary of the method: as §1

[5] = system: TRZAWR (Wheat, Winter, cv Riband); assay: Postemergence herbicidal evaluation; type: in vivo, Triticum aestivum; conditions: postemergence
Summary of the method: as §1

[6] = system: GALAP (Galium); assay: Preemergence herbicidal evaluation; type: in vivo, Galium aparine; conditions: preemergence, rated 4-5 weeks after treatment, 0-9 scale
Summary of the method: (§2)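 Rating at 4–5 wk post-spray on a 0–9 visual scale vs control. Application: aqueous acetone, ~0.0156–0.500 kg/ha, to soil surface after seeding, preemergence.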

[7] = system: SETVI (Foxtail, Green); assay: Preemergence herbicidal evaluation; type: in vivo, Setaria viridis; conditions: preemergence, rated 4-5 weeks after treatment, 0-9 scale
Summary of the method: as §2

[8] = system: ORYSAT (Rice, Tebonnet); assay: Preemergence herbicidal evaluation; type: in vivo, Oryza sativa, (L.) Tebonnet; conditions: preemergence, rated 4-5 weeks after treatment, 0-9 scale
Summary of the method: as §2

[9] = system: ECHORC (Watergrass (Calif.)); assay: Preemergence weed control under flooded paddy conditions; type: in vivo, Echinochloa oryzoides; conditions: rated 3-4 weeks after treatment
Summary of the method: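 Silt loam, seeds in top 0.5 cm; flood held 1.5-3 cm; test cpd as acetone/water 50/50 into flood water, ~0.0313-0.500 kg/ha a.i.; greenhouse 3-4 wk; visual 0-9 score vs control.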

[10] = system: CYPSE (Flatsedge); assay: as above; type: in vivo, Cyperus serotinus; conditions: rated 3-4 weeks after treatment
Summary of the method: (§3)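 Values are visual 0-9 scores against a control for a preemergence application into paddy flood water at about 0.0313 to 0.500 kg/ha. Greenhouse duration was three to four weeks.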

[11] = system: MOOVA (Monochoria); assay: as above; type: in vivo, Monochoria vaginalis; conditions: rated 3-4 weeks after treatment
Summary of the method: as §3

[12] = system: SAGPY (Arrowhead (Pygmaea)); assay: as above; type: in vivo, Sagittaria pygmaea; conditions: rated 3-4 weeks after treatment
Summary of the method: as §3

[13] = system: ECHORC (Watergrass (Calif.)); assay: Postemergence weed control under flooded paddy conditions; type: in vivo, Echinochloa oryzoides; conditions: postemergence weeds, rated 3 to 4 weeks after treatment
Summary of the method: (§4)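 Containers holding 3–5 cm weeds and rice at 1.5–2.5 leaves are flooded to 1.5–3 cm above soil. Compound in 50/50 v/v aqueous/acetone is then added directly to the water, about 0.0313–0.500 kg/ha. Plants are kept in the greenhouse and rated 0–9 visually at 3–4 weeks.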

[14] = system: SAGPY (Arrowhead (Pygmaea)); assay: as above; type: in vivo, Sagittaria pygmaea; conditions: postemergence weeds, rated 3 to 4 weeks after treatment
Summary of the method: as §4

SMILES: CN1C(=O)C(CC(=O)NS(=O)(=O)c2ccccc2)SC1=Nc1cc(-n2c(=O)cc(C(F)(F)F)n(C)c2=O)c(F)cc1Cl (centres unmarked) [Compound 102, 2-{{2-Chloro-5-[3,6-dihydro-3-methyl-2,6-dioxo-4-(trifluoromethyl)-1(2H)-pyrimidinyl]-4-fluorophenyl}imino}-3-methyl-4-oxo-N-(phenylsulfonyl)-5-thiazolidineacetamide]
- Herbicidal rating AMBEL ([1]; rate 0.0156 kg/ha): 7.0
- Herbicidal rating AMBEL ([1]; rate 0.0313 kg/ha): 9.0
- Herbicidal rating AMBEL ([1]; rate 0.0625 kg/ha): 7.0
- Herbicidal rating AMBEL ([1]; rate 0.1250 kg/ha): 9.0
- Herbicidal rating CASOB ([2]; rate 0.0156 kg/ha): 0.0
- Herbicidal rating CASOB ([2]; rate 0.0313 kg/ha): 1.0
- Herbicidal rating CASOB ([2]; rate 0.0625 kg/ha): 1.0
- Herbicidal rating CASOB ([2]; rate 0.1250 kg/ha): 3.0
- Herbicidal rating GALAP ([3]; rate 0.0156 kg/ha): 1.0
- Herbicidal rating GALAP ([3]; rate 0.0313 kg/ha): 1.0
- Herbicidal rating GALAP ([3]; rate 0.0625 kg/ha): 1.0
- Herbicidal rating GALAP ([3]; rate 0.1250 kg/ha): 4.0
- Herbicidal rating GLXMAW ([4]; rate 0.0156 kg/ha): 5.0
- Herbicidal rating GLXMAW ([4]; rate 0.0313 kg/ha): 5.0
- Herbicidal rating GLXMAW ([4]; rate 0.0625 kg/ha): 6.0
- Herbicidal rating GLXMAW ([4]; rate 0.1250 kg/ha): 7.5
- Herbicidal rating TRZAWR ([5]; rate 0.0156 kg/ha): 3.0
- Herbicidal rating TRZAWR ([5]; rate 0.0313 kg/ha): 3.0
- Herbicidal rating TRZAWR ([5]; rate 0.0625 kg/ha): 4.5
- Herbicidal rating TRZAWR ([5]; rate 0.1250 kg/ha): 4.5
- GALAP rating ([6]; 0.0156 kg/ha): 0.0
- GALAP rating ([6]; 0.0313 kg/ha): 1.0
- GALAP rating ([6]; 0.0625 kg/ha): 0.0
- GALAP rating ([6]; 0.2500 kg/ha): 1.0
- GALAP rating ([6]; 0.5000 kg/ha): 4.0
- SETVI rating ([7]; 0.0156 kg/ha): 1.0
- SETVI rating ([7]; 0.0313 kg/ha): 1.0
- SETVI rating ([7]; 0.0625 kg/ha): 0.0
- SETVI rating ([7]; 0.2500 kg/ha): 0.0
- SETVI rating ([7]; 0.5000 kg/ha): 1.0
- ORYSAT rating ([8]; 0.0156 kg/ha): 0.0
- ORYSAT rating ([8]; 0.0313 kg/ha): 0.0
- ORYSAT rating ([8]; 0.0625 kg/ha): 0.0
- ORYSAT rating ([8]; 0.2500 kg/ha): 0.0
- ORYSAT rating ([8]; 0.5000 kg/ha): 1.0
- ECHORC herbicidal effect rating ([9]; 0.2500 kg/ha): 0.0
- ECHORC herbicidal effect rating ([9]; 0.5000 kg/ha): 2.0
- CYPSE herbicidal effect rating ([10]; 0.2500 kg/ha): 0.0
- CYPSE herbicidal effect rating ([10]; 0.5000 kg/ha): 0.0
- MOOVA herbicidal effect rating ([11]; 0.2500 kg/ha): 0.0
- MOOVA herbicidal effect rating ([11]; 0.5000 kg/ha): 4.0
- SAGPY herbicidal effect rating ([12]; 0.2500 kg/ha): 0.0
- SAGPY herbicidal effect rating ([12]; 0.5000 kg/ha): 0.0
- Herbicidal rating ECHORC ([13]; Rate 0.2500 kg/ha): 0.0
- Herbicidal rating ECHORC ([13]; Rate 0.5000 kg/ha): 2.0
- Herbicidal rating SAGPY ([14]; Rate 0.2500 kg/ha): 0.0
- Herbicidal rating SAGPY ([14]; Rate 0.5000 kg/ha): 0.0
